Measured values as given in the supplement of paper PMC11061612.

Tests used:
[1] = tested on: BFTC-905 (Bladder Carcinoma); test: Bliss excess, mean over the matrix (fraction); higher = more synergy
Procedure, shortened: (§1)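 Cell lines in DMEM/F12 or RPMI with 10% FBS were plated in 1536-well plates, held 24 hours at 37°C, 5% CO2, then given two-drug dose matrices for 72 hours (DMSO typically 0.2%). Viability was read by CellTiter-Glo 2.0 luminescence and scaled as inhibition from 0 (vehicle wells) to 1 (blank wells). Combination Emax is the second-highest inhibition in the matrix; Bliss excess is observed combination effect minus expected EA + EB − EA·EB, EA and EB being single-agent effects.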

[2] = tested on: BL-41 (Burkitt's Lymphoma); test: as above
Procedure, shortened: as §1

[3] = tested on: CAMA-1 (Breast Carcinoma); test: as above
Procedure, shortened: as §1

[4] = tested on: DND-41 (T-Lymphoblastic Leukemia); test: as above
Procedure, shortened: as §1

[5] = tested on: ES1 (Ewing's Sarcoma); test: as above
Procedure, shortened: as §1

[6] = tested on: ES8 (Ewing's Sarcoma); test: as above
Procedure, shortened: as §1

[7] = tested on: GR-ST (B-Lymphoblastic Leukemia); test: as above
Procedure, shortened: as §1

[8] = tested on: K-562 (Chronic Myelogenous Leukemia); test: as above
Procedure, shortened: as §1

[9] = tested on: L-540 (Hodgkin's Lymphoma); test: as above
Procedure, shortened: as §1

[10] = tested on: MKN28 (Gastric Carcinoma); test: as above
Procedure, shortened: as §1

[11] = tested on: NCI-H1792 (Lung Adenocarcinoma); test: as above
Procedure, shortened: as §1

[12] = tested on: NCI-H2818 (Mesothelioma); test: as above
Procedure, shortened: as §1

[13] = tested on: SR (Other Blood Carcinomas); test: as above
Procedure, shortened: as §1

[14] = tested on: SW1417 (Colorectal Carcinoma); test: as above
Procedure, shortened: as §1

[15] = tested on: SW837 (Colorectal Carcinoma); test: as above
Procedure, shortened: as §1

[16] = tested on: WIL2-NS (Non-Cancerous); test: as above
Procedure, shortened: as §1

[17] = tested on: WM-115 (Melanoma); test: as above
Procedure, shortened: as §1

[18] = tested on: BFTC-905 (Bladder Carcinoma); test: combination Emax (second highest fraction inhibited in the dose matrix, 72 h); higher = more inhibition; extreme values may be limits of the assay
Procedure, shortened: as §1

[19] = tested on: BL-41 (Burkitt's Lymphoma); test: as above
Procedure, shortened: as §1

[20] = tested on: CAMA-1 (Breast Carcinoma); test: as above
Procedure, shortened: as §1

[21] = tested on: DND-41 (T-Lymphoblastic Leukemia); test: as above
Procedure, shortened: as §1

[22] = tested on: ES1 (Ewing's Sarcoma); test: as above
Procedure, shortened: as §1

[23] = tested on: ES8 (Ewing's Sarcoma); test: as above
Procedure, shortened: as §1

[24] = tested on: GR-ST (B-Lymphoblastic Leukemia); test: as above
Procedure, shortened: as §1

[25] = tested on: K-562 (Chronic Myelogenous Leukemia); test: as above
Procedure, shortened: as §1

[26] = tested on: L-540 (Hodgkin's Lymphoma); test: as above
Procedure, shortened: as §1

[27] = tested on: MKN28 (Gastric Carcinoma); test: as above
Procedure, shortened: as §1

[28] = tested on: NCI-H1792 (Lung Adenocarcinoma); test: as above
Procedure, shortened: as §1

[29] = tested on: NCI-H2818 (Mesothelioma); test: as above
Procedure, shortened: as §1

[30] = tested on: SR (Other Blood Carcinomas); test: as above
Procedure, shortened: as §1

[31] = tested on: SW1417 (Colorectal Carcinoma); test: as above
Procedure, shortened: as §1

[32] = tested on: SW837 (Colorectal Carcinoma); test: as above
Procedure, shortened: as §1

[33] = tested on: WIL2-NS (Non-Cancerous); test: as above
Procedure, shortened: as §1

[34] = tested on: WM-115 (Melanoma); test: as above
Procedure, shortened: as §1
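For Bliss excess, mean over the matrix in this document: after 72 h of two-drug dosing.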

Row | Compound | Bliss excess [1] | Bliss excess [2] | Bliss excess [3] | Bliss excess [4] | Bliss excess [5] | Bliss excess [6] | Bliss excess [7] | Bliss excess [8] | Bliss excess [9] | Bliss excess [10] | Bliss excess [11] | Bliss excess [12] | Bliss excess [13] | Bliss excess [14] | Bliss excess [15] | Bliss excess [16] | Bliss excess [17] | combination Emax [18] | combination Emax [19] | combination Emax [20] | combination Emax [21] | combination Emax [22] | combination Emax [23] | combination Emax [24] | combination Emax [25] | combination Emax [26] | combination Emax [27] | combination Emax [28] | combination Emax [29] | combination Emax [30] | combination Emax [31] | combination Emax [32] | combination Emax [33] | combination Emax [34]
1 | C[C@@H]1COCCN1c1cc(C2([S@](C)(=N)=O)CC2)nc(-c2ccnc3[nH]ccc23)n1 [AZD6738] + C1CC(C1)(C(=O)[O-])C(=O)[O-].N.N.[Pt+2] [Carboplatin] (first compound max 10 µM, 7x7, partner max 10 µM) | 0.0337 | -0.0271 | -0.0454 | -0.0146 | -0.0078 | 0.0982 | -0.0241 | -0.031 | -0.0267 | -0.0242 | -0.0303 | -0.0286 | -0.0383 | -0.0074 | -0.0837 | -0.0241 | -0.0607 | 0.723 | 0.974 | 0.381 | 0.919 | 0.917 | 0.925 | 0.747 | 0.847 | 0.894 | 0.327 | 0.733 | 0.378 | 0.879 | 0.375 | 0.402 | 0.922 | 0.425
2 | CN(CCO)CC[C@H](CSc1ccccc1)Nc1ccc(S(=O)(=O)NC(=O)c2ccc(N3CCC([C@@H](O)c4ccccc4-c4ccc(Cl)cc4)CC3)cc2)cc1S(=O)(=O)C(F)(F)F [AZD4320] + Nc1ccn([C@@H]2O[C@H](CO)[C@@H](O)C2(F)F)c(=O)n1 [Gemcitabine] (first compound max 1 µM, 7x7, partner max 0.3 µM) | 0.0207 | -0.0094 | 0.063 | 0.0375 | -0.0239 | 0.0312 | -0.0009 | 0.0054 | -0.0365 | -0.0338 | 0.0469 | 0.0008 | 0.053 | -0.0377 | -0.0331 | 0.0107 | 0.0125 | 0.9 | 1 | 0.651 | 1 | 1 | 1 | 0.765 | 0.353 | 0.951 | 0.283 | 0.823 | 0.717 | 1 | 0.49 | 0.475 | 0.987 | 0.688
3 | C=CCn1c(=O)c2cnc(Nc3ccc(N4CCN(C)CC4)cc3)nc2n1-c1cccc(C(C)(C)O)n1 [AZD1775] + CCc1c2c(nc3ccc(O)cc13)-c1cc3c(c(=O)n1C2)COC(=O)[C@]3(O)CC [SN-38] (first compound max 1 µM, partner max 0.3 µM) | -0.0133 | -0.0252 | 0.0473 | -0.0446 | -0.0144 | -0.0145 | -0.0824 | 0.0873 | -0.0458 | 0.0317 | -0.0124 | -0.063 | 0.0049 | -0.0298 | -0.0222 | -0.0755 | -0.0252 | 0.946 | 1 | 0.466 | 0.983 | 1 | 1 | 0.825 | 0.953 | 0.953 | 0.689 | 0.755 | 0.399 | 1 | 0.793 | 0.703 | 0.961 | 0.416
4 | C[C@@H]1COCCN1c1cc(C2([S@](C)(=N)=O)CC2)nc(-c2ccnc3[nH]ccc23)n1 [AZD6738] + Nc1ccn([C@@H]2O[C@H](CO)[C@@H](O)C2(F)F)c(=O)n1 [Gemcitabine] (first compound max 10 µM, 7x7, partner max 0.3 µM) | 0.0387 | -0.0007 | 0.0878 | 0.0586 | 0.0203 | 0.0265 | 0.0085 | 0.0537 | -0.0107 | 0.0907 | 0.0362 | 0.0515 | 0.0532 | 0.0802 | 0.065 | 0.0093 | 0.0268 | 0.915 | 1 | 0.587 | 0.921 | 1 | 1 | 0.889 | 0.916 | 0.963 | 0.664 | 0.951 | 0.545 | 1 | 0.77 | 0.779 | 0.985 | 0.659
5 | O=C(c1cc(Cc2n[nH]c(=O)c3ccccc23)ccc1F)N1CCN(C(=O)C2CC2)CC1 [Olaparib] + Cc1c2c(nn1C)CSCc1cc(n(C)n1)CSc1cc(c3ccccc3c1)OCCCc1c(C(=O)O)n(C)c3c-2c(Cl)ccc13 [AZD5991] (first compound max 10 µM, 7x7, partner max 1 µM) | -0.0279 | 0.0012 | 0.0094 | -0.0059 | 0.0139 | -0.0085 | -0.0352 | -0.0125 | 0.0143 | -0.0498 | -0.041 | -0.0446 | 0.0384 | -0.0315 | -0.0524 | -0.0181 | -0.0678 | 0.178 | 1 | 0.706 | 0.174 | 0.98 | 0.958 | 0.515 | 0.0695 | 1 | 0.0875 | 0.201 | 0.169 | 0.943 | 0.0852 | 0.136 | 0.299 | 0.146
6 | CN(CCO)CC[C@H](CSc1ccccc1)Nc1ccc(S(=O)(=O)NC(=O)c2ccc(N3CCC([C@@H](O)c4ccccc4-c4ccc(Cl)cc4)CC3)cc2)cc1S(=O)(=O)C(F)(F)F [AZD4320] + CC(=O)O[C@H]1C(=O)[C@@]2(C)[C@H]([C@H](OC(=O)c3ccccc3)[C@]3(O)C[C@H](OC(=O)[C@H](O)[C@@H](NC(=O)c4ccccc4)c4ccccc4)C(C)=C1C3(C)C)[C@]1(OC(C)=O)CO[C@@H]1C[C@@H]2O [Paclitaxel] (first compound max 1 µM, 7x7, partner max 3 µM) | 0.0384 | -0.0222 | 0.119 | 0.187 | -0.0272 | 0.0317 | -0.0651 | -0.0181 | 0.0162 | 0.0942 | 0.0049 | 0.0844 | 0.0061 | 0.0037 | 0.0777 | -0.0331 | 0.0811 | 0.989 | 1 | 0.843 | 1 | 0.984 | 1 | 0.839 | 0.981 | 0.974 | 0.738 | 0.986 | 0.745 | 1 | 0.864 | 0.878 | 0.942 | 0.851
7 | N#Cc1cnc(Nc2cc(NC[C@H]3CNCCO3)c(C(F)(F)F)cn2)cn1 [SRA737] + C=CCn1c(=O)c2cnc(Nc3ccc(N4CCN(C)CC4)cc3)nc2n1-c1cccc(C(C)(C)O)n1 [AZD1775] (first compound max 10 µM, partner max 1 µM) | 0.0526 | 0.0924 | 0.0672 | 0.104 | 0.118 | 0.144 | 0.0215 | 0.0463 | 0.0404 | 0.0204 | 0.0434 | -0.0129 | 0.029 | 0.0127 | 0.0157 | 0.102 | -0.0524 | 0.777 | 1 | 0.442 | 0.949 | 0.993 | 0.884 | 0.864 | 0.967 | 0.921 | 0.504 | 0.864 | 0.299 | 1 | 0.537 | 0.725 | 0.968 | 0.356
8 | N#Cc1cnc(Nc2cc(NC[C@H]3CNCCO3)c(C(F)(F)F)cn2)cn1 [SRA737] + CCc1c2c(nc3ccc(O)cc13)-c1cc3c(c(=O)n1C2)COC(=O)[C@]3(O)CC [SN-38] (first compound max 10 µM, 7x7, partner max 0.3 µM) | -0.028 | -0.0272 | 0.0081 | -0.0573 | -0.0145 | 0.0054 | -0.102 | 0.138 | -0.0403 | 0.04 | – | -0.0605 | -0.0069 | 0.019 | 0.0267 | -0.0262 | -0.0968 | 0.912 | 1 | 0.393 | 0.974 | 1 | 1 | 0.836 | 0.977 | 0.938 | 0.552 | 0.889 | 0.337 | 1 | 0.803 | 0.805 | 0.982 | 0.421
